Experimental data taken from publication PMC13266999, “Designing Antibiotics with Inherent Resistance to Efflux as a Strategy to Revive Discovery against Multidrug-Resistant Pathogens” (Journal of Medicinal Chemistry, 2026).
Values after ≈ are worked out from the molar mass of the structure shown. Where two headings read alike, the source gives them in different places.

Experiments:
[1] = biological target: T1, WT DNA gyrase (Staphylococcus aureus, UniProt P0A0K8+P20831); assay: DNA gyrase supercoiling inhibition assay; assay type: biochemical, S. aureus; conditions: WT enzyme; read-out: IC50 (converted)
T1 construct: purchased Inspiralis Ltd. (Norwich, UK)
Experimental: (§1) Gyrase inhibition was determined through biochemical assay kits from Inspiralis Ltd. (Norwich, UK), according to manufacturer’s instructions, and as described previously. Briefly, 1U of enzyme was incubated with 0.5 μg of relaxed […] DNA in the presence of compound in 1% DMSO for 30 min at 37 °C. A control reaction contained no compound but still contained 1% DMSO. The reactions were stopped through Stop Buffer addition and the DNA separated through addition of chloroform/iso-amyl alcohol (24;1). Samples were run on a 1% agarose gel at 75 V for 2 h, which was then stained with 1 μg/mL ethidium bromide and visualized using a NuGenius gel imager (Syngene). The intensity of the supercoiled DNA band was quantified using Syngene software, and the inhibition of the supercoiling of the DNA by the compounds was calculated.

[2] = biological target: T2, GyrA S84L mutant DNA gyrase (Staphylococcus aureus, UniProt P0A0K8+P20831, S84L); assay: DNA gyrase supercoiling inhibition assay; assay type: biochemical, S. aureus; conditions: S84L mutant enzyme; read-out: IC50 (converted)
T2 construct: purchased Inspiralis Ltd. (Norwich, UK)
Experimental: as §1

[3] = test system: K. pneumoniae; assay: MIC (microbroth dilution); assay type: cell-based, Klebsiella pneumoniae
Experimental: (§2) All bacteria were maintained on tryptic soy agar (TSA), except Streptococcus spp., which were maintained on Columbia agar plates containing 5% horse blood. […] Bacteria were grown to stationary phase in liquid culture overnight, with shaking at 200 rpm, before being back diluted to the relevant starting concentration for each assay below. MICs were measured by the microbroth dilution method. […] Absorbance at OD600 was read on a CLARIOstar spectrophotometer (BMG Labtech) and the MIC was defined as the minimum concentration of compound where no visible growth was detected. […] MICs were also performed in the presence of the outer membrane permeator, polymyxin b nonapeptide (PMBN) following the same MIC method but with the following variation. The 2-fold dilution series of compound was prepared as above, then 50 μL of PMBN at a final concentration of 30 μg/mL was added to relevant wells, while 50 μL/well of blank media was added to the remaining wells. Bacteria were then added at 50 μL/well for a starting concentration as above. […] The MICs were read and defined as above. All animal procedures were performed by the contract research organization Pharmacology Discovery Services Taiwan in accordance with the Guide for the Care and Use of Laboratory Animals. The procedures were approved by the Institutional Ethics Committee of Pharmacology Discovery Services Taiwan, Ltd. (approval no. AB127662), in compliance with animal welfare legislation in Taiwan.

[4] = test system: E. coli; assay: MIC (microbroth dilution); assay type: cell-based; conditions: Escherichia coli
Experimental: as §2

[5] = test system: S. aureus; assay: Serial passaging, MIC of adapted strains; assay type: cell-based; conditions: Staphylococcus aureus
Experimental: MICs were performed on the first and 10th passage.

[6] = test system: Acinetobacter baumannii; assay: MIC (microbroth dilution); assay type: cell-based; conditions: Acinetobacter baumannii
Procedure, shortened: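 Overnight stationary-phase bacteria were back-diluted and tested by broth microdilution, Streptococcus spp. in cation-adjusted Mueller Hinton broth plus 2.5% lysed horse blood, other species in tryptic soy broth. Some wells also received polymyxin B nonapeptide at 30 μg/mL final. Growth checked visually with OD600; MIC = minimum concentration showing no growth.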

In the case of `C[C@H]1COc2c(N3CCN(C)CC3)c(F)cc3c(=O)c(C(=O)O)cn1c23` [Levofloxacin, (S)-9-Fluoro-3-methyl-10-(4-methylpiperazin-1-yl)-7-oxo-2,3-dihydro-7H-[1,4]oxazino[2,3,4-ij]quinoline-6-carboxylic acid, reference compound], the IC50 [1] is reported as 24.1 µM, the IC50 [2] is reported as 545 µM and the MIC ([3]; Klebsiella pneumoniae) is reported as 0.125 µg/mL (≈ 0.346 µM). It also gave an MIC ([3]; Klebsiella pneumoniae, NCTC13368, NCTC 13368, read-out: MIC) of 2 µg/mL (≈ 5.53 µM), an MIC ([3]; TW3) of 0.125 µg/mL (≈ 0.346 µM) and an MIC ([4]; 319238/UR) of 8 µg/mL (≈ 22.1 µM). For the same compound, the MIC ([4]; LEC006) was at most 0.06 µg/mL, the MIC ([4]; LEC007) was at most 0.06 µg/mL and the MIC ([4]; LEC077) was 0.5 µg/mL (≈ 1.38 µM). It also gave an MIC ([4]; LEC081) of 0.5 µg/mL (≈ 1.38 µM), an MIC ([4]; NCTC10418, NCTC 10418) of at most 0.06 µg/mL and an MIC ([4]; NCTC11954, NCTC 11954) of at most 0.06 µg/mL. For the same compound, the MIC ([4]; NCTC12241, NCTC 12241) was at most 0.06 µg/mL, the MIC ([4]; NCTC12923, NCTC 12923) was at most 0.016 µg/mL and the MIC ([5]; 1199B WT) was 1 µg/mL. The MIC ([5]; 1199B adapted to 4 x MIC of Compound 7) was 4 µg/mL, the MIC ([5]; 1199B adapted to 4 x MIC of Compound 46) was 2 µg/mL and the MIC ([5]; 1199B adapted to 4 x MIC of Compound 50) was 4 µg/mL. The MIC ([5]; 1199B adapted to 4 x MIC of Compound 51) was 2 µg/mL, the MIC ([5]; 1199 WT) was 0.125 µg/mL and the MIC ([5]; 1199 adapted to 4 x MIC of Compound 7) was 1 µg/mL. For the same compound, the MIC ([5]; 1199 adapted to 4 x MIC of Compound 46) was 0.25 µg/mL, the MIC ([5]; 1199 adapted to 4 x MIC of Compound 50) was 1 µg/mL and the MIC ([5]; 1199 adapted to 4 x MIC of Compound 51) was 0.25 µg/mL. It also gave an MIC ([5]; NCTC13616, NCTC 13616 WT) of 8 µg/mL, an MIC ([5]; NCTC13616, NCTC 13616 adapted to 4 x MIC of Compound 7) of over 32 µg/mL and an MIC ([5]; NCTC13616, NCTC 13616 adapted to 4 x MIC of Compound 46) of 16 µg/mL. The MIC ([5]; NCTC13616, NCTC 13616 adapted to 4 x MIC of Compound 50) was 16 µg/mL, the MIC ([5]; NCTC13616, NCTC 13616 adapted to 4 x MIC of Compound 51) was 32 µg/mL and the MIC ([6]; A118) was at most 0.06 µg/mL. For the same compound, the MIC ([6]; ATCC17978, ATCC 17978, read-out: MIC) was 0.125 µg/mL (≈ 0.346 µM), the MIC ([6]; BAA1709, BAA-1709, read-out: MIC) was 0.125 µg/mL (≈ 0.346 µM) and the MIC ([6]; BAA1710, BAA-1710 (AYE), read-out: MIC) was 4 µg/mL (≈ 11.1 µM). The MIC ([6]; BAA2093, BAA-2093, read-out: MIC) was 0.06 µg/mL (≈ 0.166 µM), the MIC ([6]; NCTC10303, NCTC 10303, read-out: MIC) was 0.125 µg/mL (≈ 0.346 µM) and the MIC ([6]; NCTC12156, NCTC 12156, read-out: MIC) was 1 µg/mL (≈ 2.77 µM). For the same compound, the MIC ([6]; NCTC13302, NCTC 13302, oxa24, read-out: MIC) was 4 µg/mL (≈ 11.1 µM), the MIC ([6]; NCTC13424, NCTC 13424, oxa23, read-out: MIC) was 64 µg/mL (≈ 177 µM) and the MIC ([6]; UKA1, oxa23, read-out: MIC) was 2 µg/mL (≈ 5.53 µM). The MIC ([6]; UKA2, Low resistance, read-out: MIC) was 4 µg/mL (≈ 11.1 µM), the MIC ([6]; UKA9, read-out: MIC) was 0.125 µg/mL (≈ 0.346 µM) and the MIC ([6]; UKA12, oxa23, read-out: MIC) was 8 µg/mL (≈ 22.1 µM). It also gave an MIC ([6]; UKA13, oxa23, read-out: MIC) of 16 µg/mL (≈ 44.3 µM), an MIC ([6]; UKA15, oxa23, read-out: MIC) of 4 µg/mL (≈ 11.1 µM) and an MIC ([6]; UKA19, read-out: MIC) of 1 µg/mL (≈ 2.77 µM). It also gave an MIC ([6]; W1, read-out: MIC) of 8 µg/mL (≈ 22.1 µM) and an MIC50 ([6]; panel of 25 A. baumannii strains) of 4 µg/mL (≈ 11.1 µM).
